Experimental data from ChEMBL document CHEMBL3286240, “Inhibition of Enterococcus faecalis biofilm formation by highly active lactones and lactams analogues of rubrolides” (Eur J Med Chem, 2014).
Converted amounts (≈) assume the structure as drawn.

Tested on: Enterococcus faecalis
Experiment: Antimicrobial activity against Enterococcus faecalis assessed as bacterial growth at 10.9 ug/ml after 20 hrs by microtiter plate assay
Assay type: functional

In order of falling Activity:
1. COc1ccc(Br)cc1C1=C(Br)C(=O)N(CC(C)C)/C1=C\c1ccc(Br)cc1  55.9%
2. COc1ccc(C)cc1C1=C(Br)C(=O)N(CC(C)C)C1(O)Cc1ccccc1Cl (stereo unspecified)  43.8%
3. COc1ccc(Cl)cc1C1=C(Br)C(=O)N(CC(C)C)C1(O)Cc1ccccc1Br (stereo unspecified)  36.7%
4. COc1ccc(Br)cc1C1=C(Br)C(=O)N(CC(C)C)/C1=C\c1cccc(Cl)c1  20%
5. COc1cccc(CC2(O)C(c3cc(Cl)ccc3OC)=C(Br)C(=O)N2CC(C)C)c1 (stereo unspecified)  19.8%
6. COc1ccccc1C1=C(Br)C(=O)N(CC(C)C)/C1=C\c1ccc(C(F)(F)F)cc1  -4.2%

Tested on: Enterococcus faecalis
Experiment: Antimicrobial activity against Enterococcus faecalis assessed as bacterial growth at 2.73 ug/ml after 20 hrs by microtiter plate assay
Assay type: functional

In order of falling Activity:
1. COc1ccc(C)cc1C1=C(Br)C(=O)N(CC(C)C)C1(O)Cc1ccccc1Cl (stereo unspecified)  35.4%
2. COc1ccc(Br)cc1C1=C(Br)C(=O)N(CC(C)C)/C1=C\c1ccc(Br)cc1  33.9%
3. COc1ccc(Cl)cc1C1=C(Br)C(=O)N(CC(C)C)C1(O)Cc1ccccc1Br (stereo unspecified)  30.2%
4. COc1ccc(Br)cc1C1=C(Br)C(=O)N(CC(C)C)/C1=C\c1cccc(Cl)c1  27%
5. COc1cccc(CC2(O)C(c3cc(Cl)ccc3OC)=C(Br)C(=O)N2CC(C)C)c1 (stereo unspecified)  9.5%
6. COc1ccccc1C1=C(Br)C(=O)N(CC(C)C)/C1=C\c1ccc(C(F)(F)F)cc1  -6.6%

Tested on: Enterococcus faecalis
Experiment: Antimicrobial activity against Enterococcus faecalis assessed as bacterial growth at 0.17 ug/ml after 20 hrs by microtiter plate assay
Assay type: functional

In order of rising Activity:
1. COc1ccc(Cl)cc1C1=C(Br)C(=O)N(CC(C)C)C1(O)Cc1ccccc1Br (stereo unspecified)  -5.1%
2. COc1cccc(CC2(O)C(c3cc(Cl)ccc3OC)=C(Br)C(=O)N2CC(C)C)c1 (stereo unspecified)  -4%
3. COc1ccc(C)cc1C1=C(Br)C(=O)N(CC(C)C)C1(O)Cc1ccccc1Cl (stereo unspecified)  -3.7%
4. COc1ccccc1C1=C(Br)C(=O)N(CC(C)C)/C1=C\c1ccc(C(F)(F)F)cc1  -2.4%
5. COc1ccc(Br)cc1C1=C(Br)C(=O)N(CC(C)C)/C1=C\c1ccc(Br)cc1  -2.2%
6. COc1ccc(Br)cc1C1=C(Br)C(=O)N(CC(C)C)/C1=C\c1cccc(Cl)c1  9.3%

Tested on: Enterococcus faecalis
Experiment: Antimicrobial activity against Enterococcus faecalis assessed as bacterial growth at 43.8 ug/ml after 20 hrs by microtiter plate assay
Assay type: functional

In order of rising Activity:
1. COc1ccccc1C1=C(Br)C(=O)N(CC(C)C)/C1=C\c1ccc(C(F)(F)F)cc1  11.2%
2. COc1ccc(Br)cc1C1=C(Br)C(=O)N(CC(C)C)/C1=C\c1cccc(Cl)c1  26.3%
3. COc1cccc(CC2(O)C(c3cc(Cl)ccc3OC)=C(Br)C(=O)N2CC(C)C)c1 (stereo unspecified)  38.2%
4. COc1ccc(Cl)cc1C1=C(Br)C(=O)N(CC(C)C)C1(O)Cc1ccccc1Br (stereo unspecified)  53.9%
5. COc1ccc(Br)cc1C1=C(Br)C(=O)N(CC(C)C)/C1=C\c1ccc(Br)cc1  59.7%
6. COc1ccc(C)cc1C1=C(Br)C(=O)N(CC(C)C)C1(O)Cc1ccccc1Cl (stereo unspecified)  63.4%

Tested on: Enterococcus faecalis
Experiment: Antimicrobial activity against Enterococcus faecalis assessed as bacterial growth at 1.37 ug/ml after 20 hrs by microtiter plate assay
Assay type: functional

In order of rising Activity:
1. COc1ccccc1C1=C(Br)C(=O)N(CC(C)C)/C1=C\c1ccc(C(F)(F)F)cc1  -5.2%
2. COc1cccc(CC2(O)C(c3cc(Cl)ccc3OC)=C(Br)C(=O)N2CC(C)C)c1 (stereo unspecified)  3%
3. COc1ccc(Br)cc1C1=C(Br)C(=O)N(CC(C)C)/C1=C\c1ccc(Br)cc1  17.5%
4. COc1ccc(C)cc1C1=C(Br)C(=O)N(CC(C)C)C1(O)Cc1ccccc1Cl (stereo unspecified)  19.1%
5. COc1ccc(Cl)cc1C1=C(Br)C(=O)N(CC(C)C)C1(O)Cc1ccccc1Br (stereo unspecified)  19.3%
6. COc1ccc(Br)cc1C1=C(Br)C(=O)N(CC(C)C)/C1=C\c1cccc(Cl)c1  25.1%

Tested on: Enterococcus faecalis
Experiment: Antimicrobial activity against Enterococcus faecalis assessed as bacterial growth at 87.5 ug/ml after 20 hrs by microtiter plate assay
Assay type: functional

In order of rising Activity:
1. COc1ccccc1C1=C(Br)C(=O)N(CC(C)C)/C1=C\c1ccc(C(F)(F)F)cc1  45%
2. COc1cccc(CC2(O)C(c3cc(Cl)ccc3OC)=C(Br)C(=O)N2CC(C)C)c1 (stereo unspecified)  60.6%
3. COc1ccc(Cl)cc1C1=C(Br)C(=O)N(CC(C)C)C1(O)Cc1ccccc1Br (stereo unspecified)  78%
4. COc1ccc(Br)cc1C1=C(Br)C(=O)N(CC(C)C)/C1=C\c1ccc(Br)cc1  82.8%
5. COc1ccc(C)cc1C1=C(Br)C(=O)N(CC(C)C)C1(O)Cc1ccccc1Cl (stereo unspecified)  86.4%
6. COc1ccc(Br)cc1C1=C(Br)C(=O)N(CC(C)C)/C1=C\c1cccc(Cl)c1  94.2%

Tested on: Enterococcus faecalis
Experiment: Antimicrobial activity against Enterococcus faecalis assessed as inhibition of biofilm formation after 20 hrs by crystal violet staining analysis
Assay type: functional, organism-based

`COc1ccc(C)cc1C1=C(Br)C(=O)N(CC(C)C)C1(O)Cc1ccccc1Cl` (stereo unspecified) and `COc1ccc(Cl)cc1C1=C(Br)C(=O)N(CC(C)C)C1(O)Cc1ccccc1Br` (stereo unspecified) are within 1.5-fold of each other in IC50: 1.07 µg/mL (≈ 2.23 µM) for the first, 1.29 µg/mL (≈ 2.37 µM) for the second.

Compared with `COc1cccc(CC2(O)C(c3cc(Cl)ccc3OC)=C(Br)C(=O)N2CC(C)C)c1` (stereo unspecified), `COc1ccc(Br)cc1C1=C(Br)C(=O)N(CC(C)C)/C1=C\c1cccc(Cl)c1` is lower in IC50: greater than 87.5 µg/mL for the first, 3.31 µg/mL (≈ 6.3 µM) for the second.

First: COc1ccccc1C1=C(Br)C(=O)N(CC(C)C)/C1=C\c1ccc(C(F)(F)F)cc1
Second: COc1ccc(Br)cc1C1=C(Br)C(=O)N(CC(C)C)/C1=C\c1ccc(Br)cc1
The IC50 of the first is 1.8-fold higher: 12 µg/mL (≈ 25 µM) for the first, 6.62 µg/mL (≈ 11.6 µM) for the second.

Tested on: Enterococcus faecalis
Experiment: Antimicrobial activity against Enterococcus faecalis assessed as bacterial growth at 21.9 ug/ml after 20 hrs by microtiter plate assay
Assay type: functional

In order of falling Activity:
1. COc1ccc(Br)cc1C1=C(Br)C(=O)N(CC(C)C)/C1=C\c1ccc(Br)cc1  58.1%
2. COc1ccc(C)cc1C1=C(Br)C(=O)N(CC(C)C)C1(O)Cc1ccccc1Cl (stereo unspecified)  46%
3. COc1ccc(Cl)cc1C1=C(Br)C(=O)N(CC(C)C)C1(O)Cc1ccccc1Br (stereo unspecified)  38.4%
4. COc1cccc(CC2(O)C(c3cc(Cl)ccc3OC)=C(Br)C(=O)N2CC(C)C)c1 (stereo unspecified)  21.6%
5. COc1ccc(Br)cc1C1=C(Br)C(=O)N(CC(C)C)/C1=C\c1cccc(Cl)c1  20.4%
6. COc1ccccc1C1=C(Br)C(=O)N(CC(C)C)/C1=C\c1ccc(C(F)(F)F)cc1  4%

Tested on: Enterococcus faecalis
Experiment: Antimicrobial activity against Enterococcus faecalis assessed as bacterial growth at 0.34 ug/ml after 20 hrs by microtiter plate assay
Assay type: functional

In order of rising Activity:
1. COc1ccc(C)cc1C1=C(Br)C(=O)N(CC(C)C)C1(O)Cc1ccccc1Cl (stereo unspecified)  -15.6%
2. COc1ccccc1C1=C(Br)C(=O)N(CC(C)C)/C1=C\c1ccc(C(F)(F)F)cc1  -10.4%
3. COc1ccc(Cl)cc1C1=C(Br)C(=O)N(CC(C)C)C1(O)Cc1ccccc1Br (stereo unspecified)  -1.9%
4. COc1ccc(Br)cc1C1=C(Br)C(=O)N(CC(C)C)/C1=C\c1ccc(Br)cc1  0.3%
5. COc1cccc(CC2(O)C(c3cc(Cl)ccc3OC)=C(Br)C(=O)N2CC(C)C)c1 (stereo unspecified)  1%
6. COc1ccc(Br)cc1C1=C(Br)C(=O)N(CC(C)C)/C1=C\c1cccc(Cl)c1  12.1%

Tested on: Enterococcus faecalis
Experiment: Antimicrobial activity against Enterococcus faecalis assessed as bacterial growth at 5.5 ug/ml after 20 hrs by microtiter plate assay
Assay type: functional

In order of falling Activity:
1. COc1ccc(Br)cc1C1=C(Br)C(=O)N(CC(C)C)/C1=C\c1ccc(Br)cc1  43%
2. COc1ccc(C)cc1C1=C(Br)C(=O)N(CC(C)C)C1(O)Cc1ccccc1Cl (stereo unspecified)  41.6%
3. COc1ccc(Cl)cc1C1=C(Br)C(=O)N(CC(C)C)C1(O)Cc1ccccc1Br (stereo unspecified)  32.4%
4. COc1ccc(Br)cc1C1=C(Br)C(=O)N(CC(C)C)/C1=C\c1cccc(Cl)c1  21.8%
5. COc1cccc(CC2(O)C(c3cc(Cl)ccc3OC)=C(Br)C(=O)N2CC(C)C)c1 (stereo unspecified)  -8%
6. COc1ccccc1C1=C(Br)C(=O)N(CC(C)C)/C1=C\c1ccc(C(F)(F)F)cc1  -8%

Tested on: Enterococcus faecalis
Experiment: Antimicrobial activity against Enterococcus faecalis assessed as bacterial growth at 0.68 ug/ml after 20 hrs by microtiter plate assay
Assay type: functional

In order of falling Activity:
1. COc1ccc(Br)cc1C1=C(Br)C(=O)N(CC(C)C)/C1=C\c1cccc(Cl)c1  17.9%
2. COc1cccc(CC2(O)C(c3cc(Cl)ccc3OC)=C(Br)C(=O)N2CC(C)C)c1 (stereo unspecified)  4%
3. COc1ccc(Br)cc1C1=C(Br)C(=O)N(CC(C)C)/C1=C\c1ccc(Br)cc1  -1.3%
4. COc1ccccc1C1=C(Br)C(=O)N(CC(C)C)/C1=C\c1ccc(C(F)(F)F)cc1  -10.2%
5. COc1ccc(Cl)cc1C1=C(Br)C(=O)N(CC(C)C)C1(O)Cc1ccccc1Br (stereo unspecified)  -10.6%
6. COc1ccc(C)cc1C1=C(Br)C(=O)N(CC(C)C)C1(O)Cc1ccccc1Cl (stereo unspecified)  -12.4%
